Experimental data published in US20260217701A1, “SELECTIVE BET INHIBITORS AND USES THEREOF” (Tay Therapeutics Limited, priority 2022, published 2026).
Values joined by “and” are separate entries in the source; they are usually repeats but may differ in a detail not shown here. Equal values may be shown once.

Tested on: imiquimod-induced psoriasis
Experiment: Imiquimod-induced psoriasis model
Format: in vivo, mice
Set-up: Spleen Weight / Spleen Weight Ratio: unit not given here
Details: for PASI Scores: IMI + Apremilast 3 mg/kg; for Mean scores of the presence of erythema on the skin of animals at the area of induction of psoriasis / Mean scores of the presence of induration on the skin of animals at the area of induction of psoriasis / Mean scores of the presence of peeling on the skin of animals at the area of induction of psoriasis: mean ± SEM
From the text: Imiquimod-induced psoriasis is a model of psoriasis in mice that induces psoriasis-like dermatitis. The pathology closes resembles human plaque-type psoriasis and is a valuable tool for testing new therapies against psoriasis. […] Compound A was formulated in a 5% DMSO/40% PEG-400/55% (0.9% NaCl w/v water) solution (Table 2F). Experimental groups for the study are outlined in Table 4. Prior to study initiation, the backs of all animals in the study were depilated to allow for induction of psoriasis and monitoring of disease progression.
Once assigned to experimental groups, on Day 1 and continuing through Day 14, topical imiquimod (IMI; Aldara™ containing 5% Imiquimod) was administered to the dorsal depilated animals, and animals in group 1 received topical administration of Excipial® hydrocream (65 mg). […] Clobetasol was applied topically for animals in group 11.
Body weights were recorded three times a week from Day 1 to Day 8, and daily from Day 8 until the study end at Day 15. At termination on D15 the spleen weight ratio was determined. Disease severity was assessed using the psoriasis area severity index (PASI) daily from Day 8 until study completion on Day 15. The PASI score was calculated based on three parameters (presence of erythema, induration of the skin, and peeling of the skin at the area of induction) on a scale of 0 to 4 (0=no more or absence, 1=low, 2=moderate, 3=high, 4=severe). The PASI score for each animal was calculated as the sum of the score of each parameter measured. The score of the use of enrichment (SUE) was also assessed daily from Day 8 to Day 15. At study completion on Day 15, animal behavior was evaluated using an open field to assess distance travelled, number scratching, and licking and rearing performed in 10 minutes. Upon study termination animals were sacrificed, the spleen was excised and weighed, and blood samples were collected. Serum was isolated from the blood sample for cytokine and other biomarker analysis. IL-1B, IL-6, IL-17, and TNF-α assayed using simple plex technique on an ELLA automated immunoassay system. IL-22 and IL-23 were assayed by ELISA.
The imiquimod-induced model of psoriasis was used to assess the efficacy of Compound A in treating psoriasis. […] Treatment started on Day 8 after induction so reference to day 1 of treatment is to Day 8 and day 7 of treatment is to Day 14.

[1] = IMI-psoriasis model, behavioral evaluation D15, 3 mg/kg, individual animals
[2] = IMI-psoriasis model, behavioral evaluation, 3 mg/kg, individual animals
[3] = IMI-psoriasis model, mice, 3 mg/kg, individual animals
[4] = IMI + 3 mg/kg, D8 (before start of treatment)

## CCOc1cc([C@@H](CS(C)(=O)=O)N2C(=O)c3cccc(NC(C)=O)c3C2=O)ccc1OC [Apremilast, reference compound]
IMI + 3 mg/kg, Day 1 (before treatment start on Day 8), individual animals, 3 mg/kg, in g (unit assumed)
  Body Weight D1: 18.04 and 18.00 and 18.05 and 18.89 and 15.16 and 17.91 and 18.62 and 18.72
IMI + 3 mg/kg, Day 3 (before treatment start on Day 8), individual animals, 3 mg/kg, in g (unit assumed)
  Body Weight D3: 15.91 and 16.38 and 17.39 and 17.17 and 13.24 and 16.46 and 17.63 and 16.03
IMI + 3 mg/kg, Day 5 (before treatment start on Day 8), individual animals, 3 mg/kg, in g (unit assumed)
  Body Weight D5: 16.70 and 17.24 and 17.88 and 17.91 and 13.95 and 16.38 and 17.65 and 16.94
IMI + 3 mg/kg, Day 7 (before treatment start on Day 8), individual animals, 3 mg/kg, in g (unit assumed)
  Body Weight D7: 16.55 and 16.74 and 17.25 and 17.69 and 15.07 and 16.92 and 17.97 and 17.32
IMI + 3 mg/kg, Day 8 (first day of treatment), individual animals, 3 mg/kg, in g (unit assumed)
  Body Weight D8: 16.41 and 16.59 and 17.27 and 17.43 and 13.81 and 17.05 and 17.50 and 16.19
IMI + 3 mg/kg, Day 9, individual animals, 3 mg/kg
  Body Weight D9: 16.75 and 17.41 (2×) and 17.44 and 17.12 and 13.85 and 17.04 and 16.34
IMI + 3 mg/kg, Day 10, individual animals, 3 mg/kg, in g (unit assumed)
  Body Weight D10: 17.13 and 17.32 and 17.55 and 17.39 and 13.82 and 17.24 and 17.62 and 17.09
IMI + 3 mg/kg, Day 11, individual animals, 3 mg/kg, in g (unit assumed)
  Body Weight D11: 16.87 and 17.60 and 17.50 and 17.32 and 14.44 and 17.59 and 17.99 and 17.89
IMI + 3 mg/kg, Day 12, individual animals, 3 mg/kg, in g (unit assumed)
  Body Weight D12: 17.32 and 18.46 and 17.58 and 17.84 and 14.88 and 18.39 and 18.34 and 18.22
IMI + 3 mg/kg, Day 13, individual animals, 3 mg/kg, in g (unit assumed)
  Body Weight D13: 17.57 and 18.62 and 18.39 and 18.19 and 14.70 and 18.17 and 18.61 and 18.32
IMI + 3 mg/kg, Day 14, individual animals, 3 mg/kg, in g (unit assumed)
  Body Weight D14: 17.89 and 18.64 and 18.56 and 18.40 and 15.26 and 17.85 and 18.49 and 18.20
IMI + 3 mg/kg, Day 15, individual animals, 3 mg/kg
  Body Weight D15: 18.27 and 18.85 (2×) and 18.94 and 15.48 and 18.37 and 18.62 and 18.57
IMI + 3 mg/kg, body weight change Day 1 to Day 8 (before treatment), individual animals, 3 mg/kg
  MBWC D1-D8: −1.63 and −1.41 and −0.78 and −1.46 and −1.35 and −0.86 and −1.12 and −2.53
IMI + 3 mg/kg, body weight change Day 8 to Day 15 (treatment period), individual animals, 3 mg/kg
  MBWC D8-D15: 1.86 and 2.26 and 1.67 (2×) and 1.42 and 1.32 and 1.12 and 2.38
D8 (day treatment started), individual animals
  PASI Scores: 9 and 7 (4×) and 8 (2×) and 6
D9, individual animals
  PASI Scores: 8 and 5 (2×) and 7 and 6 (3×) and 4
D10, individual animals
  PASI Scores: 6 (2×) and 7 (2×) and 4 (4×)
D11, individual animals
  PASI Scores: 5 (4×) and 4 (4×)
D12, individual animals
  PASI Scores: 3 (4×) and 5 and 2 (2×) and 1
D13, individual animals
  PASI Scores: 1 (3×) and 0 (3×) and 2 (2×)
D14, individual animals
  PASI Scores: 2 and 0 (3×) and 1 (4×)
D15, individual animals
  PASI Scores: 1 (3×) and 0 (5×)
IMI-psoriasis model, D1, 3 mg/kg, per cage (two animals)
  Use Enrichment D1: 4.0
IMI-psoriasis model, D10, 3 mg/kg, per cage (two animals)
  Use Enrichment D10: 2.5 and 3.0 and 2.0
IMI-psoriasis model, D11, 3 mg/kg, per cage (two animals)
  Use Enrichment D11: 3.5 and 4.0 and 3.0
IMI-psoriasis model, D12, 3 mg/kg, per cage (two animals)
  Use Enrichment D12: 3.5 and 2.5 and 3.0
IMI-psoriasis model, D13, 3 mg/kg, per cage (two animals)
  Use Enrichment D13: 4.0
IMI-psoriasis model, D14, 3 mg/kg, per cage (two animals)
  Use Enrichment D14: 4.0
IMI-psoriasis model, D15, 3 mg/kg, per cage (two animals)
  Use Enrichment D15: 4.0
[1]
  Number Licking: 4 (2×) and 5 and 1 and 2 (2×) and 3 (2×)
  Number Licking + Scratching: 5 and 6 and 1 and 2 (2×) and 7 and 3 (2×)
  Number Scratching: 1 (2×) and 0 (5×) and 3
[2]
  Distance Traveled: 10 m and 13 m and 8 m and 11 m (2×) and 17 m and 9 m and 15 m
  Number Rearings: 20 and 58 and 21 and 42 and 81 and 13 and 60 and 12
IMI-psoriasis model, mean D1-D8, 3 mg/kg, per cage (two animals)
  Use Enrichment Mean D1-D8: 2.50 and 2.00
IMI-psoriasis model, mean D8-D15, 3 mg/kg, per cage (two animals)
  Use Enrichment Mean D8-D15: 3.07 and 3.36 and 2.93
[3]
  Spleen Weight: 180.97 and 286.06 and 424.79 and 208.70 and 207.33 and 227.51 and 223.09 and 221.44
  Spleen Weight Ratio: 990.53 and 1517.56 and 2242.82 and 1107.16 and 1339.34 and 1238.49 and 1198.12 and 1192.46
[4]
  Mean scores of the presence of erythema on the skin of animals at the area of induction of psoriasis: 2.1 ± 0.1
  Mean scores of the presence of induration on the skin of animals at the area of induction of psoriasis: 3.0 ± 0.0
  Mean scores of the presence of peeling on the skin of animals at the area of induction of psoriasis: 2.5 ± 0.2
IMI + 3 mg/kg, D9
  Mean scores of the presence of erythema on the skin of animals at the area of induction of psoriasis: 1.5 ± 0.2
  Mean scores of the presence of induration on the skin of animals at the area of induction of psoriasis: 2.3 ± 0.2
  Mean scores of the presence of peeling on the skin of animals at the area of induction of psoriasis: 2.1 ± 0.2
IMI + 3 mg/kg, D10
  Mean scores of the presence of erythema on the skin of animals at the area of induction of psoriasis: 1.6 ± 0.2
  Mean scores of the presence of induration on the skin of animals at the area of induction of psoriasis: 2.0 ± 0.2
  Mean scores of the presence of peeling on the skin of animals at the area of induction of psoriasis: 1.6 ± 0.3
IMI + 3 mg/kg, D11
  Mean scores of the presence of erythema on the skin of animals at the area of induction of psoriasis: 1.4 ± 0.2
  Mean scores of the presence of induration on the skin of animals at the area of induction of psoriasis: 1.8 ± 0.2
  Mean scores of the presence of peeling on the skin of animals at the area of induction of psoriasis: 1.4 ± 0.2
IMI + 3 mg/kg, D12
  Mean scores of the presence of erythema on the skin of animals at the area of induction of psoriasis: 0.75 ± 0.2
  Mean scores of the presence of induration on the skin of animals at the area of induction of psoriasis: 0.9 ± 0.2
  Mean scores of the presence of peeling on the skin of animals at the area of induction of psoriasis: 1.1 ± 0.1
IMI + 3 mg/kg, D13
  Mean scores of the presence of erythema on the skin of animals at the area of induction of psoriasis: 0.3 ± 0.2
  Mean scores of the presence of induration on the skin of animals at the area of induction of psoriasis: 0.4 ± 0.2
  Mean scores of the presence of peeling on the skin of animals at the area of induction of psoriasis: 0.3 ± 0.2
IMI + 3 mg/kg, D14
  Mean scores of the presence of erythema on the skin of animals at the area of induction of psoriasis: 0.0 ± 0.0
  Mean scores of the presence of induration on the skin of animals at the area of induction of psoriasis: 0.4 ± 0.2
  Mean scores of the presence of peeling on the skin of animals at the area of induction of psoriasis: 0.4 ± 0.2
IMI + 3 mg/kg, D15
  Mean scores of the presence of erythema on the skin of animals at the area of induction of psoriasis: 0.1 ± 0.1
  Mean scores of the presence of induration on the skin of animals at the area of induction of psoriasis: 0.1 ± 0.1
  Mean scores of the presence of peeling on the skin of animals at the area of induction of psoriasis: 0.1 ± 0.1
mice, IMI + 3 mg/kg, D8 (before start of treatment)
  Mean PASI Scores in IMI-Psoriasis Model: 7.4 ± 0.3
mice, IMI + 3 mg/kg, D9
  Mean PASI Scores in IMI-Psoriasis Model: 5.9 ± 0.4
mice, IMI + 3 mg/kg, D10
  Mean PASI Scores in IMI-Psoriasis Model: 5.3 ± 0.5
mice, IMI + 3 mg/kg, D11
  Mean PASI Scores in IMI-Psoriasis Model: 4.5 ± 0.2
mice, IMI + 3 mg/kg, D12
  Mean PASI Scores in IMI-Psoriasis Model: 2.8 ± 0.4
mice, IMI + 3 mg/kg, D13
  Mean PASI Scores in IMI-Psoriasis Model: 0.9 ± 0.3
mice, IMI + 3 mg/kg, D14
  Mean PASI Scores in IMI-Psoriasis Model: 0.8 ± 0.3
mice, IMI + 3 mg/kg, D15
  Mean PASI Scores in IMI-Psoriasis Model: 0.4 ± 0.2
